Test results published in PubChem BioAssay (NCI).
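Following 48 hours of exposure in 96-well plates, responses at five concentrations were used to interpolate endpoints linearly. GI50 is the concentration that inhibits growth by half. TGI marks complete inhibition of growth.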

Experiments:
Assay in all cases: inhibition of tumour cell growth, NCI panel, 48 h
786-0 renal = tested on: 786-0 renal
A498 renal = tested on: A498 renal
A549 NSCLC = tested on: A549 NSCLC
ACHN renal = tested on: ACHN renal
BT-549 breast = tested on: BT-549 breast
CAKI-1 renal = tested on: CAKI-1 renal
CCRF-CEM leukemia = tested on: CCRF-CEM leukemia
COLO 205 colon = tested on: COLO 205 colon
DU-145 prostate = tested on: DU-145 prostate
EKVX NSCLC = tested on: EKVX NSCLC
HCC-2998 colon = tested on: HCC-2998 colon
HCT-116 colon = tested on: HCT-116 colon
HCT-15 colon = tested on: HCT-15 colon
HL-60(TB) leukemia = tested on: HL-60(TB) leukemia
HOP-62 NSCLC = tested on: HOP-62 NSCLC
HOP-92 NSCLC = tested on: HOP-92 NSCLC
HS 578T breast = tested on: HS 578T breast
HT29 colon = tested on: HT29 colon
IGROV1 ovarian = tested on: IGROV1 ovarian
K-562 leukemia = tested on: K-562 leukemia
KM12 colon = tested on: KM12 colon
LOX IMVI melanoma = tested on: LOX IMVI melanoma
M14 melanoma = tested on: M14 melanoma
MCF7 breast = tested on: MCF7 breast
MDA-MB-231 breast = tested on: MDA-MB-231 breast
MDA-MB-435 = tested on: MDA-MB-435
MOLT-4 leukemia = tested on: MOLT-4 leukemia
NCI-H226 lung = tested on: NCI-H226 lung
NCI-H23 lung = tested on: NCI-H23 lung
NCI-H460 lung = tested on: NCI-H460 lung
NCI-H522 lung = tested on: NCI-H522 lung
NCI/ADR-RES ovarian = tested on: NCI/ADR-RES ovarian
OVCAR-3 ovarian = tested on: OVCAR-3 ovarian
OVCAR-4 ovarian = tested on: OVCAR-4 ovarian
OVCAR-5 ovarian = tested on: OVCAR-5 ovarian
OVCAR-8 ovarian = tested on: OVCAR-8 ovarian
PC-3 prostate = tested on: PC-3 prostate
RPMI-8226 leukemia = tested on: RPMI-8226 leukemia
RXF 393 renal = tested on: RXF 393 renal
SF-268 CNS = tested on: SF-268 CNS
SF-295 CNS = tested on: SF-295 CNS
SF-539 CNS = tested on: SF-539 CNS
SK-MEL-2 melanoma = tested on: SK-MEL-2 melanoma
SK-MEL-28 melanoma = tested on: SK-MEL-28 melanoma
SK-MEL-5 melanoma = tested on: SK-MEL-5 melanoma
SK-OV-3 ovarian = tested on: SK-OV-3 ovarian
SN12C renal = tested on: SN12C renal
SNB-19 CNS = tested on: SNB-19 CNS
SNB-75 CNS = tested on: SNB-75 CNS
SR leukemia = tested on: SR leukemia
SW-620 colon = tested on: SW-620 colon
T-47D breast = tested on: T-47D breast
TK-10 renal = tested on: TK-10 renal
U251 CNS = tested on: U251 CNS
UACC-257 melanoma = tested on: UACC-257 melanoma
UACC-62 melanoma = tested on: UACC-62 melanoma
UO-31 renal = tested on: UO-31 renal

For c1ccc2c(c1)CCCc1nnc3nc4ccccc4n3c1-2, the GI50 (786-0 renal) was 5.12 µM, the TGI (786-0 renal) was over 100 µM and the GI50 (A498 renal) was 16.6 µM. For the same molecule, the TGI (A498 renal) was over 100 µM, the GI50 (A549 NSCLC) was 3.66 µM and the TGI (A549 NSCLC) was over 100 µM. The GI50 (ACHN renal) was 3.65 µM, the TGI (ACHN renal) was over 100 µM and the GI50 (BT-549 breast) was 11.5 µM. The TGI (BT-549 breast) was over 100 µM, the GI50 (CAKI-1 renal) was 5.32 µM and the TGI (CAKI-1 renal) was over 100 µM. The GI50 (CCRF-CEM leukemia) was 3.68 µM, the TGI (CCRF-CEM leukemia) was over 100 µM and the GI50 (COLO 205 colon) was 4.78 µM. The TGI (COLO 205 colon) was over 100 µM, the GI50 (DU-145 prostate) was 4.91 µM and the TGI (DU-145 prostate) was over 100 µM. It also gave a GI50 (EKVX NSCLC) of 4.02 µM, a TGI (EKVX NSCLC) of over 100 µM and a GI50 (HCC-2998 colon) of 6.45 µM. For the same molecule, the TGI (HCC-2998 colon) was 24.1 µM, the GI50 (HCT-116 colon) was 3.35 µM and the TGI (HCT-116 colon) was 13.8 µM. For the same molecule, the GI50 (HCT-15 colon) was 3.27 µM, the TGI (HCT-15 colon) was over 100 µM and the GI50 (HL-60(TB) leukemia) was 2.49 µM. The TGI (HL-60(TB) leukemia) was 78.2 µM, the GI50 (HOP-62 NSCLC) was 4.73 µM and the TGI (HOP-62 NSCLC) was over 100 µM. The GI50 (HOP-92 NSCLC) was 9.53 µM, the TGI (HOP-92 NSCLC) was over 100 µM and the GI50 (HS 578T breast) was 20.5 µM. The TGI (HS 578T breast) was over 100 µM, the GI50 (HT29 colon) was 10.1 µM and the TGI (HT29 colon) was 82.5 µM. The GI50 (IGROV1 ovarian) was 2.88 µM, the TGI (IGROV1 ovarian) was over 100 µM and the GI50 (K-562 leukemia) was 3.87 µM. For the same molecule, the TGI (K-562 leukemia) was over 100 µM, the GI50 (KM12 colon) was 5.37 µM and the TGI (KM12 colon) was 27.6 µM. It also gave a GI50 (LOX IMVI melanoma) of 2.61 µM, a TGI (LOX IMVI melanoma) of 10.9 µM and a GI50 (M14 melanoma) of 3.13 µM. The TGI (M14 melanoma) was 25.2 µM, the GI50 (MCF7 breast) was 4.1 µM and the TGI (MCF7 breast) was over 100 µM. It also gave a GI50 (MDA-MB-231 breast) of 4.98 µM, a TGI (MDA-MB-231 breast) of over 100 µM and a GI50 (MDA-MB-435) of 7.32 µM. For the same molecule, the TGI (MDA-MB-435) was over 100 µM, the GI50 (MOLT-4 leukemia) was 4.49 µM and the TGI (MOLT-4 leukemia) was over 100 µM. For the same molecule, the GI50 (NCI-H226 lung) was 6.39 µM, the TGI (NCI-H226 lung) was over 100 µM and the GI50 (NCI-H23 lung) was 7.31 µM. The TGI (NCI-H23 lung) was over 100 µM, the GI50 (NCI-H460 lung) was 3.65 µM and the TGI (NCI-H460 lung) was 16.6 µM. The GI50 (NCI-H522 lung) was 12.7 µM, the TGI (NCI-H522 lung) was 33 µM and the GI50 (NCI/ADR-RES ovarian) was 3.32 µM. It also gave a TGI (NCI/ADR-RES ovarian) of 25.1 µM, a GI50 (OVCAR-3 ovarian) of 4.37 µM and a TGI (OVCAR-3 ovarian) of 37.8 µM. For the same molecule, the GI50 (OVCAR-4 ovarian) was 3.98 µM, the TGI (OVCAR-4 ovarian) was over 100 µM and the GI50 (OVCAR-5 ovarian) was 9.28 µM. The TGI (OVCAR-5 ovarian) was over 100 µM, the GI50 (OVCAR-8 ovarian) was 5.02 µM and the TGI (OVCAR-8 ovarian) was 74.1 µM. The GI50 (PC-3 prostate) was 7.87 µM, the TGI (PC-3 prostate) was over 100 µM and the GI50 (RPMI-8226 leukemia) was 2.96 µM. For the same molecule, the TGI (RPMI-8226 leukemia) was 29.1 µM, the GI50 (RXF 393 renal) was 3.08 µM and the TGI (RXF 393 renal) was 32.7 µM. It also gave a GI50 (SF-268 CNS) of 5.73 µM, a TGI (SF-268 CNS) of over 100 µM and a GI50 (SF-295 CNS) of 9.01 µM. For the same molecule, the TGI (SF-295 CNS) was over 100 µM, the GI50 (SF-539 CNS) was 3.57 µM and the TGI (SF-539 CNS) was 18.4 µM. For the same molecule, the GI50 (SK-MEL-2 melanoma) was 28.3 µM, the TGI (SK-MEL-2 melanoma) was over 100 µM and the GI50 (SK-MEL-28 melanoma) was 9.43 µM. It also gave a TGI (SK-MEL-28 melanoma) of over 100 µM, a GI50 (SK-MEL-5 melanoma) of 4.89 µM and a TGI (SK-MEL-5 melanoma) of over 100 µM. The GI50 (SK-OV-3 ovarian) was 7.78 µM, the TGI (SK-OV-3 ovarian) was over 100 µM and the GI50 (SN12C renal) was 8.15 µM. It also gave a TGI (SN12C renal) of over 100 µM, a GI50 (SNB-19 CNS) of 7.5 µM and a TGI (SNB-19 CNS) of over 100 µM. It also gave a GI50 (SNB-75 CNS) of 23 µM, a TGI (SNB-75 CNS) of over 100 µM and a GI50 (SR leukemia) of 3.16 µM. For the same molecule, the TGI (SR leukemia) was 25.7 µM, the GI50 (SW-620 colon) was 5.06 µM and the TGI (SW-620 colon) was 24.2 µM. The GI50 (T-47D breast) was 5.49 µM, the TGI (T-47D breast) was over 100 µM and the GI50 (TK-10 renal) was 6.8 µM. It also gave a TGI (TK-10 renal) of over 100 µM, a GI50 (U251 CNS) of 3.29 µM and a TGI (U251 CNS) of 24.1 µM. The GI50 (UACC-257 melanoma) was 5.27 µM, the TGI (UACC-257 melanoma) was over 100 µM and the GI50 (UACC-62 melanoma) was 6.54 µM. For the same molecule, the TGI (UACC-62 melanoma) was over 100 µM, the GI50 (UO-31 renal) was 3.08 µM and the TGI (UO-31 renal) was 30.5 µM.
